The assay deals with PCC 11801. As to the kind of experiment: MMS mutagenesis kill rate. It counts as cell-based, Synechococcus elongatus sp. PCC 11801. As to conditions: 1% (v/v) MMS for 90 seconds, quenched with 5% sodium thiosulfate. The method, then:
Random mutagenesis was performed by modifying a previously described protocol (Deshpande et al. (2020), infra) with methylmethanesulfonate (MMS) and ultra-violet (UV) irradiation as the mutagens. Cells were prepared for random mutagenesis by pelleting exponentially growing cultures (OD ˜0.6-1) of PCC 11801 and resuspending in 1 mL of fresh BG-11M media.
For MMS mutagenesis, 1% (v/v) MMS (Sigma-Aldrich, St. Louis, Mo.) was added for 90 seconds, and the reaction was quenched by the addition of 5% (w/w) sodium thiosulfate solution to yield a ˜85-95% kill rate. For UV mutagenesis, the culture was subjected to 90 seconds of UV light to yield a kill rate of ˜90%.
The mutagenized cultures were incubated at 38° C. overnight in the dark before selection. To select for overproducers, the phenylalanine (Phe) analog 3-(2-thienyl)-dl-alanine (Sigma-Aldrich, St. Louis, Mo.) was applied to BG-11M agar plates in concentrations ranging from 0.5-2 mg/ml. The wild-type and mutagenized cultures were diluted and spread on BG-11M (to test kill rate) and BG-11M analog-containing plates, and were incubated at 38° C. until colonies appeared. Colonies (i.e. variant Synechococcus elongatus sp. strains) that successfully grew on analog selection plates were picked (e.g., selected) and re-streaked on selective plates for at least three rounds to enable complete segregation of mutations.

Structures are written as SMILES.

On to `COS(C)(=O)=O` [MMS, methylmethanesulfonate], for which the kill rate is 85-95%.
